Results: article PMC2637266, “Quantification of gamma-secretase modulation differentiates inhibitor compound selectivity between two substrates Notch and amyloid precursor protein” (Molecular Brain, 2008)
Entries after “also recorded” stand apart in the source; their conditions may differ. Where two headings read alike, the source gives them in different places.

Tests used:
[1] = biological target: T1, γ-secretase cleavage of Notch N100-Flag (Homo sapiens, UniProt P49768); assay: In vitro γ-secretase activity assay, NICD generated from N100-Flag, Western blot densitometry; format: biochemical; conditions: for NICD generation in vitro, dose response: N100-Flag, increasing concentrations
T1 construct: substrate made in E. coli
Procedure: To characterize the direct effect of two γ-secretase inhibitors cpd E and DAPT on APP/Notch cleavage, a conventional in vitro γ-secretase assay to quantify their inhibitory potency was used. The incubation of γ-secretase complex with purified substrates at 37°C for 4 hr was followed by Western Blot (WB) to determine the quantity of newly generated NICD. A newly generated band that corresponds to the predicted size of the NICD-Flag was detected (Fig. 1A and 1B).
Figure 1 Generation of NICD and Aβ from purified APP and Notch substrate C100 and N100 in an in vitro γ-secretase activity assay. The E. coli generated APP- and Notch-based, 100-residue γ-secretase substrates C100-Flag and N100-Flag were mixed with the membrane vesicles solubilized in CHAPSO after DMSO or compounds were added. The mixture was incubated at 37°C for 4 hours. A. A dose-dependent inhibition of NICD generation by DAPT. Generation of NICD was detected by Western blot (WB) with antibody 1744 specifically recognizing N-terminus of NICD. B. Generation of NICD was inhibited in the presence of 100 nM of cpd E. C. Levels of NICD determined by WB were quantified by densitometry (dotted line). Levels of Aβ generated from the γ-secretase cleavage of C100 in the presence of DAPT were determined by ELISA (solid line). […] D. NICD (dotted line) and Aβ (solid line) generation in the presence of cpd E were compared.
The E. coli generated APP- and Notch-based, 100-residue γ-secretase substrates C100-Flag and N100-Flag were purified as previously described. C100-Flag substrate contains an initiating methionine, the 99 C-terminal residues of APP that start at the […], and a Flag tag. N100-Flag substrate contains a similar initiating methionine, 99 amino acids that start at the TACE cleavage site, and a Flag tag. The membrane vesicles were solubilized in 1% CHAPSO-HEPES and diluted in a final concentration of 0.2% CHAPSO-HEPES. Phosphatidylethanolamine (PE) and phosphatidylcholine (PC) were added to the final concentration of 0.02% PE and 0.08% PC. After adding DMSO or test compounds to the solubilized γ-secretase complex, substrate C100-Flag or N100-Flag was added to the mixture, then followed by incubation at 37°C for 4 hours. Two compounds have been used in this study, compound E (cpd E), {(S,S)-2-[2-(3,5-Difluorophenyl)-acetylamino]-N-(1-methyl-2-oxo-5-phenyl-2,3-dihydro-1H-benzo [e] [1,4] diazepin-3-yl)-propionamide} [57] and DAPT {N-[N-(3,5-Difluorophenacetyl-L-alanyl)]-S-phenylglycine t-Butyl Ester} [79]. Cpd E was provided by Dr. Michael Wolfe.

[2] = biological target: T2, γ-secretase cleavage of NotchΔE (Homo sapiens, UniProt P49768); assay: NICD generation in NotchΔE transfected HEK293 cells, Western blot; format: cell-based; conditions: for NICD generation in cultured cells: high doses
T2 construct: endogenous in cells; host or cells: HEK293 stably expressing Swedish mutant human APP695, transiently transfected with NotchΔE
Procedure: Since many compounds could behave differently in vitro versus in culture cells, cpd E and DAPT were tested in cultured cells (Fig. 2). HEK293 cells stably expressing Swedish mutant APP were transiently transfected with NotchΔE, a truncated Notch construct that is readily cleaved by the γ-secretase to generate NICD for downstream signaling transduction. NotchΔE expressing cells were treated with increasing concentrations of DAPT or cpd E. Cell lysates were subjected to WB for measuring the generation of NICD (Fig. 2A), and conditioned media were collected for Aβ measurement by ELISA (Fig. 2B,C).
Figure 2 Generation of NICD and Aβ from NotchΔE and APP expressing cells. A. Twenty four hrs after the construct carrying NotchΔE was transfected into APP expressing HEK293 cells, cells were treated with DAPT or cpd E for 8 hr and lysed for WB with antibody 1744 to specifically detect the N-terminus of NICD. Bottom panel, the antibody against α-tubulin was applied to normalize the amounts of lysates used for WB. B. Levels of NICD determined by WB were quantified by densitometry (dotted line). Levels of Aβ generated from the γ-secretase cleavage of APP in the presence of DAPT were determined by ELISA. […] C. NICD (dotted line) and Aβ (solid line) production from cpd E-treated cells were compared. […] D. A luciferase reporter construct driven by HES1 promoter was transfected into HEK293 cells followed by treatment with cpd E or DAPT.
The cDNA construct NotchΔE has a c-myc tag and is a truncated Notch molecule that is an immediate substrate for γ-secretase cleavage to generate Notch intracellular domain (NICD). Two chimeric cDNA constructs express […] the juxtamembrane portion of the APP ectodomain (the α-secretase cleavage region) replaced by the corresponding sequence in Notch (APP-α-NOTCH). These cDNA constructs were provided by Dr. Dennis Selkoe. Hes-1 reporter construct (Hes-Luc) was generated by insertion three of Su(H) binding sequence
Human embryonic kidney (HEK) 293 cells stably expressing Swedish mutant human APP695 were transfected with different cDNA constructs and maintained in 200 μg/ml G418 (Invitrogen, Carlsbad, CA). Transfected cells were treated with two γ-secretase inhibitors cpd E or DAPT for 8 hr. Conditioned media were collected for ELISA, and cell lysates were analyzed by Western blot as described. Cells co-transfected with Hes-Luc and NotchΔE were treated with compounds followed by the measurement of luciferase activity (Luciferase Assay System, Promega, Madison, WI).

[3] = test system: Notch target gene her6; assay: Whole mount in situ hybridization of Notch target gene her6 in treated zebrafish embryos; format: in vivo
Description: To examine the effect of DAPT and cpd E on Notch signaling, embryos treated with different concentrations of DAPT or cpd E were stained by whole mount in situ hybridization using a her6 probe (Fig 5). The expression level of Notch downstream target gene her6 correlates to the levels of Notch signaling, i.e., a loss of her6 staining corresponds to an inhibition of γ-secretase mediated Notch signaling. We have focused on the specific effect of γ-secretase inhibitors on Notch signaling in brain region.
Figure 5 Expression levels of Notch target gene her6 are consistent with the curvature phenotype. Increasing concentrations of DAPT or cpd E were applied to de-chorionated zebrafish embryos from 24 hpf until 48 hpf, and in situ hybridization of compound-treated embryos was carried out at 48 hpf using the her6 probe. At least 10 to 20 embryos were examined for each experiment. Images were taken at the 64× magnification for stained embryos.
In situ hybridization of compound-treated embryos was carried out at 2 dpf according to standard protocols using the her6 probe. Single-stranded RNA probes against her6 were synthesized from a cDNA clone (provided by Dr. P Raymond, University of Michigan, Ann Arbor, MI) using T7 RNA polymerase after linearization by restriction digest. The probe was then labeled with digoxigenin-UTP (Roche, Basel, Switzerland). At least 10 to 20 embryos were examined for each experiment. Images were taken at 64× magnification for stained embryos.

SMILES	γ-secretase cleavage of Notch in vitro at low concentrations ([1]; 0.1 nM to 10 nM)	Notch cleavage reduced to, in vitro γ-secretase activity assay ([1]; 1 μM or higher)	NICD generation blocked in vitro ([1]; 10 and 100 μM)	NICD generation in vitro, dose response [1]	Notch cleavage reduced to, cell culture based assay ([2]; 1 μM or higher)	EC50 ([2]; Fig. 2B and 2C, read-out: EC50 to reduce NICD generation in cultured cells) [nM]	NICD generation in cultured cells [2]	her6 expression ([3]; 0.5 μM, 24 hpf until 48 hpf)	her6 expression ([3]; 5 μM, 24 hpf until 48 hpf)	her6 expression ([3]; 50 μM, 24 hpf until 48 hpf)	NICD generation in vitro ([1]; 100 nM (0.1 μM), compared to DMSO controls)	EC50 ([2]; EC50 for the inhibition of NICD generation in cultured cells, Fig. 2) [nM]	EC50 ([2]; EC50 to reduce NICD generation in cultured cells, Fig. 2B and 2C) [nM]	her6 expression ([3]; highest testing doses)
C[C@H](NC(=O)Cc1cc(F)cc(F)c1)C(=O)N[C@H](C(=O)OC(C)(C)C)c1ccccc1 [DAPT, N-[N-(3,5-Difluorophenacetyl-L-alanyl)]-S-phenylglycine t-Butyl Ester]	did not inhibit	about 50%	~ 60%	clear reduction of NICD generation	about 50%	~1000	could not completely eliminate NICD generation	very similar staining pattern to the control embryos	staining of her6 started to appear	significantly reduced or disappeared in most areas	–	–	–	–
C[C@H](NC(=O)Cc1cc(F)cc(F)c1)C(=O)N[C@H]1N=C(c2ccccc2)c2ccccc2N(C)C1=O [cpd E, (S,S)-2-[2-(3,5-Difluorophenyl)-acetylamino]-N-(1-methyl-2-oxo-5-phenyl-2,3-dihydro-1H-benzo [e] [1,4]diazepin-3-yl)-propionamide]	–	–	–	clear reduction of NICD generation	–	–	could not completely eliminate NICD generation	–	–	slightly reduced expression level of her6 gene	inhibited; also recorded: only minor reduction of NICD levels; also recorded: only had minor effect on Notch cleavage and NICD generation	< 100	10	reduction of her6 staining
